Assay results published in patent US8318736B2, “HIV inhibiting 5,6-substituted pyrimidines” (Janssen R&D Ireland, priority 2006, dated 2012).

Columns and labels:
[1] = tested on: HIV strain K103N + Y181C (second column with this head); test: microbe, parasite or virus in culture; format: cell-based, HIV-1; conditions: Human immunodeficiency virus 1, 72 h, read-out: K103N + Y181C pEC50 (-log EC50) (converted)
Protocol: (§2) The ratio of CC50 to EC50 is defined as the selectivity index (SI) and is an indication of the selectivity of the anti-HIV activity of the inhibitor. The ultimate monitoring of HIV-1 infection and cytotoxicity was done using a scanning microscope. Image analysis allowed very sensitive detection of viral infection. Measurements were done before cell necrosis, which usually takes place about five days after infection, in particular measurements were performed three days after infection.

[2] = tested on: HIV strain MDR (L100I, K103N, Y181C, E138G, V1791, L2214F, V278V/I and A327A/V in HIV reverse transcriptase); test: microbe, parasite or virus in culture; format: cell-based, HIV-1; conditions: Human immunodeficiency virus 1, read-out: MDR pEC50 (-log EC50) (converted)
Source text: (§1) Image analysis allowed very sensitive detection of viral infection.
“MDR” refers to a strain that contains mutations L100I, K103N, Y181C, E138G, V1791, L2214F, V278V/I and A327A/V in HIV reverse transcriptase.

[3] = tested on: HIV strain IIIB (wild type); test: microbe, parasite or virus in culture; conditions: for EC50: Human immunodeficiency virus 1, IIIB, 72 h, read-out: IIIB pEC50 (-log EC50) (converted); for pSI (IIIB) (-log SI; SI = ratio of CC50 to EC50): strain IIIB, CC50 in mock-infected MT4 CMV-EGFP cells
Protocol: Compounds of the invention were tested for their potency against wild type virus and clinically isolated HIV strains harboring one or more mutations associated with resistance to reverse transcriptase inhibitors. Antiviral activity was evaluated using a cellular assay performed according to the following procedure.
The human T-cell line MT4 was engineered with Green Fluorescent Protein (GFP) and a HIV-specific promoter, HIV-1 long terminal repeat (LTR). This cell line, designated MT4 LTR-EGFP, can be used for the in vitro evaluation of anti-HIV activity of investigational compounds. In HIV-1 infected cells, the Tat protein is produced, which upregulates the LTR promotor and eventually leads to stimulation of the GFP reporter production, allowing to measure ongoing HIV-infection fluorometrically.
Analogously, MT4 cells were engineered with GFP and the constitutional cytomegalovirus (CMV) promotor. This cell line was designated MT4 CMV-EGFP, and can be used for the in vitro evaluation of cytotoxicity of investigational compounds. […] Cytotoxic investigational compounds reduce GFP levels of mock-infected MT4 CMV-EGFP cells.
The ratio of CC50 to EC50 is defined as the selectivity index (SI) and is an indication of the selectivity of the anti-HIV activity of the inhibitor. The ultimate monitoring of HIV-1 infection and cytotoxicity was done using a scanning microscope. […] Measurements were done before cell necrosis, which usually takes place about five days after infection, in particular measurements were performed three days after infection.
The columns IIIB, L100I, etc. in the table list the pEC50 (−log EC50) values against various strains IIIB, L100I, etc.; pSI lists the −log SI values.
Strain IIIB is wild type HIV strain.

[4] = tested on: HIV strain L100I + K103N; test: microbe, parasite or virus in culture; format: cell-based, HIV-1; conditions: Human immunodeficiency virus 1, 72 h, read-out: L100I + K103N pEC50 (-log EC50) (converted)
Source text: as §1

[5] = tested on: HIV strain K103N + Y181C; test: microbe, parasite or virus in culture; format: cell-based, HIV-1; conditions: Human immunodeficiency virus 1, 72 h, read-out: K103N + Y181C pEC50 (-log EC50) (converted)
Protocol: as §2

SMILES	EC50 [1]	EC50 [2]	EC50 [3]	pSI (IIIB) (-log SI; SI = ratio of CC50 to EC50) [3]	melting point	EC50 [4]	EC50 [5]
COCc1nc(Nc2ccc(C#N)cc2)nc(Nc2c(C)cc(/C=C/C#N)cc2C)c1-c1cnccc1OC [Compound 1]	83.2 nM	2400 nM	12.9 nM	>3.28	120 °C	63.1 nM	93.3 nM
COCc1nc(Nc2ccc(C#N)cc2)nc(Nc2c(C)cc(/C=C/C#N)cc2C)c1-c1cccnc1 [Compound 2]	15.8 nM	240 nM	3.02 nM	3.65	216 °C	4.17 nM	21.4 nM
COCc1nc(Nc2ccc(C#N)cc2)nc(Nc2c(C)cc(/C=C/C#N)cc2C)c1-c1ccncc1 [Compound 3]	22.4 nM	355 nM	3.31 nM	>3.88	172 °C	9.33 nM	29.5 nM
COCc1nc(Nc2ccc(C#N)cc2)nc(Nc2c(C)cc(/C=C/C#N)cc2C)c1-c1cccs1 [Compound 4]	18.6 nM	138 nM	4.57 nM	3.73	130 °C	3.8 nM	15.5 nM
COCc1nc(Nc2ccc(C#N)cc2)nc(Nc2c(C)cc(/C=C/C#N)cc2C)c1-c1ccsc1 [Compound 5]	25.1 nM	324 nM	4.37 nM	>3.76	125 °C	5.01 nM	21.4 nM
COCc1nc(Nc2ccc(C#N)cc2)nc(Nc2c(C)cc(/C=C/C#N)cc2C)c1-c1ccco1 [Compound 6]	17.4 nM	89.1 nM	3.63 nM	3.61	105 °C	3.63 nM	16.6 nM
COCc1nc(Nc2ccc(C#N)cc2)nc(Nc2c(C)cc(/C=C/C#N)cc2C)c1-c1ccoc1 [Compound 7]	12.6 nM	91.2 nM	3.72 nM	3.75	122 °C	2.4 nM	12.3 nM
C=CC(O)c1c(COC)nc(Nc2ccc(C#N)cc2)nc1Nc1c(C)cc(/C=C/C#N)cc1C (stereo not shown) [Compound 36]	12.6 nM	66.1 nM	2.63 nM	3.85	–	3.47 nM	8.71 nM
COCc1nc(Nc2ccc(C#N)cc2)nc(Nc2c(C)cc(/C=C/C#N)cc2C)c1C(C)O (stereo not shown) [Compound 37]	11.5 nM	105 nM	1.45 nM	3.95	–	2.45 nM	6.03 nM
COCc1nc(Nc2ccc(C#N)cc2)nc(Nc2c(C)cc(/C=C/C#N)cc2C)c1C(O)c1nccs1 (stereo not shown) [Compound 38]	12 nM	174 nM	2.69 nM	3.81	–	3.72 nM	12.3 nM
